Assay results published in article PMC10057066, “Unraveling the Aquaporin-3 Inhibitory Effect of Rottlerin by Experimental and Computational Approaches” (International Journal of Molecular Sciences, 2023).

Molecular target: T1, aquaporin-3 (AQP3) (Homo sapiens, UniProt Q92482)
T1 construct: human AQP3 C-terminally GFP-tagged, expressed in aqy-null S. cerevisiae; endogenous AQP3 in human red blood cells
T1 sequence (Q92482 1-292): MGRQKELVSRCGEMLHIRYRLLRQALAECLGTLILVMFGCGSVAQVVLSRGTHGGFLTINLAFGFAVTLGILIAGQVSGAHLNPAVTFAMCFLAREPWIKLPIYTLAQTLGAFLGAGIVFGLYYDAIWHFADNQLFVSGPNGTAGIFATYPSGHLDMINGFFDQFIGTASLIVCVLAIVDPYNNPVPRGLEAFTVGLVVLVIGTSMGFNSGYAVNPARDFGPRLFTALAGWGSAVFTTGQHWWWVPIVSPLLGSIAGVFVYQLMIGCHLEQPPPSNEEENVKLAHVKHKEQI
Assay: stopped-flow glycerol permeability in hRBCs (IC50), confirmed in hAQP3-expressing yeast ([…] inhibition at […])
Format: cell-based

For `CC(=O)c1c(O)c(C)c(O)c(Cc2c(O)c3c(c(C(=O)/C=C/c4ccccc4)c2O)OC(C)(C)C=C3)c1O` [RoT, Rottlerin], the IC50 was 6.7 ± 2.97 µM.
